Laboratory results published in US12162892B2, “CD16a binding agents and uses thereof” (KLEO PHARMACEUTICALS, INC., priority 2018, dated 2024).
Where “and” joins values, the source holds several entries; their conditions need not be identical. Equal values may be shown once.

How the values were obtained:
CD16a158V [1] = molecular target: T1, CD16a158V (Homo sapiens, UniProt P08637, F176V); assay: Biotinylated Ligand ELISA Assay; type: binding; details: Biotinylated CD16a protein at 10 nM
Method: (§1) Coat ELISA plates (Costar 3922) using Neutravidin (Thermo 31000) at 5 μg/ml (100 μl/well) for 1 hour at 37° C. Plates were washed 4 times with PBST (PBS, 0.05% Tween 20-200 μl, 1 minute/wash) then blocked using 200 μl 5% bovine serum albumin (BSA, Heat Shock, Fraction V-American Bio AB01088-00100) in PBST for 2 hours at 25° C. with moderate shaking. BSA was removed and plates were washed. Biotinylated ligands diluted in PBSTB (PBST+0.1% BSA) were then added (100 μl/well) and incubated for 1 hour at 25° C. with gentle shaking. Ligands were removed and plates were washed. Any remaining unoccupied neutravidin binding sites were blocked by adding 100 μM Biotin (Fisher BP232-1) (100 μl/well) and incubated for 1 hour at 25° C. with gentle shaking. Plates were then washed. […] Protein was removed and plates were washed. Streptavidin-HRP (Invitrogen 434323) diluted 1:5000 in PBSTB was added (100 μl/well) and incubated for 1 hour at 25° C. with gentle shaking. Wash plates. Substrate (Super Signal ELISA Pico Chemiluminescent Substrate-Thermo 37069) was added (100 μl/well) and plates were incubated for 5 minutes at 25° C. with gentle shaking. Luminescence was then measured on the Biotek Synergy H1 microplate reader.

primary monocytes = assay: ADCP assay using fresh primary monocytes; type: cell-based, human; details: beads loaded with test compound at 50 uM; 37C for 18 hrs
Method: (§2) Biotinylated fluorescent beads (Invitrogen, cat #P35372) were thoroughly mixed by vortexing for 1 min. Ten microliters of supplied bead suspension per treatment type were dispensed in Eppendorf tubes, and washed with 1 ml PBS […], then re-suspended in 500 uL of 1% BSA in PBS. Test compounds were added to bead suspensions to a final concentration of 50 uM, and biotinylated human IgG whole molecule (Rockland 009-0602) final concentration of 20 ug/mL.
(§3) Tubes were incubated at room temperature for 1 hr on a rocking platform.
(§4) Following incubation, beads were pelleted in a microcentrifuge at 12,000 g for 5 minutes at room temperature. Supernatants were carefully aspirated and beads were washed 5 times by resuspending in 1 ml of PBS 1% BSA, and centrifuging as described above. Finally, beads were resuspended in 500 ul of PBS 1% BSA and used in ADCP assay.
PBMC, freshly isolated from whole blood (Bioreclamation IVT0) using Ficoll-Paque density centrifugation were resuspended in serum-free, supplemented RPMI at 2×10^6 cells/mL.
Ten milliliters of the resulting cell suspension was seeded into 75-cm^2 tissue culture flask (Denville Scientific TC9341) and incubated 2-3 hr at 37° C. 5% CO2 to allow cell adhesion. Following incubation, media was decanted and surface of the flask was carefully washed twice, each time with 10 ml serum-free, supplemented RPMI to remove any residual non-adherent cells. To remove adherent cells, 10 mL of ice-cold 2.5 mM EDTA/PBS solution was added for 10 min on ice. Cells were transferred to a 15-ml conical tube and centrifuge 10 min at 300×g, room temperature, to remove the EDTA/PBS solution. Monocytes were then resuspended in RPMI 10% FCS at 5×10^5 cells/mL to be used in ADCP assay. Monocyte purity was assessed by staining cells with antibodies to human CD3 FITC (Biolegend 300306), CD19 PeCy7 (Biolegend 302216), CD14 BV421 (BD Biosciences, 565283), and CD16 (Biolegend 302046).
(§5) Monocytes or THP-1 cells (TIB-202 ATCC) were seeded into 96 well round bottom 96 well plates at the density of 10^5 cells per well in 200 ul, and 10 uL of fluorescent bead suspension prepared as described above was added to each well. Well contents were mixed by pipetting up and down using a multichannel pipet, and plates were incubated at 37C for 18 hrs. After incubation, well contents were transferred into flat bottom black 96 well plates (Costar #3358) and centrifuged for 2 minutes at 300 g to allow for better visualization of the cells. Images were taken using Zoe fluorescent cell imager (Biorad).

CD16a158F [2] = molecular target: T2, CD16a158F (Homo sapiens, UniProt P08637); assay: Biotin ELISA, interaction with various receptors (Example 55); type: binding; details: three replicate values per compound
T2 sequence (P08637 17-208 limits assumed): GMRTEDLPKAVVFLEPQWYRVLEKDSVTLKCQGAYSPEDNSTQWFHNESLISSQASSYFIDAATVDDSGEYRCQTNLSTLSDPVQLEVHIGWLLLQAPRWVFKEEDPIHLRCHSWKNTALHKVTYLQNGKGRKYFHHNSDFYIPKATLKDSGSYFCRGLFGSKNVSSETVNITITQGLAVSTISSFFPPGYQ
Method: as §1
(§6) Using similar methods as Examples 47 or 53, interactions with a number of receptors were measured. In some embodiments, “stock” is antibody only, and “control” is an antibody that went through the same procedure except using DMSO only as opposed to a compound. When contacted with targeting moieties such as antibodies in the Examples, compounds, e.g., I-95, I-96, etc. can react through their reactive groups

CD16a158V [3] = molecular target: T1, CD16a158V; assay: as above; type: binding; details: three replicate values per compound
Method: as §1, §6

CD32a H167 = molecular target: T3, CD32a H167 (Homo sapiens, UniProt P12318); assay: as above; type: binding; details: three replicate values per compound
T3 sequence (P12318 36-218 limits assumed): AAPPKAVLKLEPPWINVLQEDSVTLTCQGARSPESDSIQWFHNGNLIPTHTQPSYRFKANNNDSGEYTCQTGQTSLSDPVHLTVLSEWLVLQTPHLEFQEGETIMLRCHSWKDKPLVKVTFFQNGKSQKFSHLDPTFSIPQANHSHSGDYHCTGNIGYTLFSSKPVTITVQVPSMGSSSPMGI
Method: as §1, §6

CD32a-R167 = assay: as above; type: binding; details: three replicate values per compound
Method: as §1, §6

CD32b = molecular target: T4, CD32b (Homo sapiens, UniProt P31994); assay: as above; type: binding; details: three replicate values per compound
T4 sequence (P31994 43-310): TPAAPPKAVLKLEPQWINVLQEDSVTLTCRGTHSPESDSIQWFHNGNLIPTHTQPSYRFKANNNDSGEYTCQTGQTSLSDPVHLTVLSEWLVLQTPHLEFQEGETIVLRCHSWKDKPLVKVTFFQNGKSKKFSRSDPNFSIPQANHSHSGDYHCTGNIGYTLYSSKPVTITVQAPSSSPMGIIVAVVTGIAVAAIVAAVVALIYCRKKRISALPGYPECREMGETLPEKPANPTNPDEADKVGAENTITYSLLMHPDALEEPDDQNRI
Method: as §1, §6

CD3ed = CD3ed (Homo sapiens, UniProt P04234+P07766); assay: as above; type: binding; details: three replicate values per compound
Sequence of CD3ed (P07766 23-126 limits assumed): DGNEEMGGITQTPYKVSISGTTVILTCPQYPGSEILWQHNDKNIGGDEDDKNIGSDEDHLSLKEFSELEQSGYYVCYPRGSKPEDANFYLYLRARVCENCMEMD
Sequence of CD3ed (P04234 22-105 limits assumed): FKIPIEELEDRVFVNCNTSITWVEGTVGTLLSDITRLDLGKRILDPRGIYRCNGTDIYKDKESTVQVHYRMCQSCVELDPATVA
Method: as §1, §6

CD64 = CD64 (Homo sapiens, UniProt P12314); assay: as above; type: binding; details: three replicate values per compound
Sequence of CD64 (P12314 16-374): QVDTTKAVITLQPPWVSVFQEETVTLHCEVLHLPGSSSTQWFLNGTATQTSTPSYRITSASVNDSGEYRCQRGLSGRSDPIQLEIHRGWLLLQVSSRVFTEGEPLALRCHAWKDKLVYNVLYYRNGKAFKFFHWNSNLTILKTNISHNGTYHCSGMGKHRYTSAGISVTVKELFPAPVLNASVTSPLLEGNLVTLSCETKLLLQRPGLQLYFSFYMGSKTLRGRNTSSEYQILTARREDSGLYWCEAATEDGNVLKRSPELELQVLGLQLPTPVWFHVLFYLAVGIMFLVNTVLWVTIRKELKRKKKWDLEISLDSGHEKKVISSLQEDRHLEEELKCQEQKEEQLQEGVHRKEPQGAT
Method: as §1, §6

[4] = Biotin ELISA, No Protein (Example 55); type: binding; details: three replicate values per compound
Method: as §1, §6

CD16a158F [5] = molecular target: T2, CD16a158F; assay: Biotinylated Ligand ELISA Assay; type: binding; design: purchased Acro Biosystems CDA-H82E8; details: Biotinylated CD16a protein at 10 nM
Method: as §1

[6] = system: CD16a negative THP1 cells; assay: ADCP assay using THP-1 cells; type: cell-based; details: beads loaded with test compound at 50 uM; 37C for 18 hrs
Method: as §2, §3, §4, §5

CD16a158V [7] = molecular target: T1, CD16a158V; assay: Microscale Thermophoresis; type: binding; details: read-out: MST-CD16a158V KD
Method: Target proteins (poly-histidine tagged, 600 nM) were fluorescently labeled combination with an equal volume of dye (200 nM, His-Tag labeling kit RED-tris-NTA NanoTemper: MO-L008) PBST. The mixture rotated in the dark for 45 min before being spun down at 12000 rpm for 15 min to remove uncomplexed material. The fluorescence of the removed supernatant was adjusted to for a test concentration of 40-80 nM (2× the final measured). Test ligands were prepared across a 12-point dilution series in a 96-well PCR plate at a volume of 20 uL at 2× the concentration desired for testing (0.2% BSA in PBST). The dilution series was then combined with an equal volume of the labeled target at 2× the concentration desired for testing. Capillaries were added to the wells of the combined target/ligand complex and measured by MST. Measurements were taken using a Nanotemper Monolith NT.115, and the data was analyzed using NanoTemper MO.Control software.

T1 sequence (P08637 17-208 F176V): as the sequence (P08637 17-208 limits assumed) above, with F160V counted along it

| Structure (SMILES) | Biotin ELISA Results CD16a-158F (CD16a158F [2]) | Biotin ELISA Results CD16a-158V (CD16a158V [3]) | Biotin ELISA Results CD32a-H167 (CD32a H167) | Biotin ELISA Results CD32a-R167 (CD32a-R167) | Biotin ELISA Results CD32b (CD32b) | Biotin ELISA Results CD3ed (CD3ed) | Biotin ELISA Results CD64 (CD64) | Kd (CD16a158V [7]) | Biotinylated Ligand ELISA-CD16a158V Binding (RLU) (CD16a158V [1]) | ACDP (primary monocytes)-normalized phagocytosis score (primary monocytes) | Biotin ELISA Results No Protein [4] | Biotinylated Ligand ELISA-CD16a158F Binding (RLU) (CD16a158F [5]) | ACDP (CD16a negative THP1 cells)-normalized phagocytosis score [6] |
| --- | --- | --- | --- | --- | --- | --- | --- | --- | --- | --- | --- | --- | --- |
| O=C(CCCC[C@@H]1SC[C@@H]2NC(=O)N[C@@H]21)NCCOCCOCCOCCOCCOCCOCCOCCOCCn1cc(-c2ccc(NC(=O)N3CCC4(CC3)NC(=O)N(c3ccccc3)C4=O)cc2)nn1 [Compound I-18, N-{4-[1-(26-{5-[(3aS,4S,6aR)-2-oxo-hexahydro-1H-thieno[3,4-d]imidazol-4-yl]pentanamido}-3,6,9,12,15,18,21,24-octaoxahexacosan-1-yl)-1H-1,2,3-triazol-4-yl]phenyl}-2,4-dioxo-3-phenyl-1,3,8-triazaspiro[4.5]decane-8-carboxamide] | – | – | – | – | – | – | – | – | D (a relative luminescence value (RLU) of 1-1,000) | – | – | D (a relative luminescence value (RLU) of 1-1,000) | B (a normalized phagocytosis score of 1.5-2.0) |
| O=C(CCCC[C@@H]1SC[C@@H]2NC(=O)N[C@@H]21)NCCOCCOCCOCCOCCOCCOCCOCCOCCNC(=O)c1cnc(N2CCC3(CC2)NC(=O)C(Nc2ccccc2)C3=O)nc1 (stereo partly shown) [Compound I-21] | 6775 and 6468 and 5831 | 5747 and 5338 and 6303 | 15126 and 14461 and 15658 | 12004 and 10942 and 9796 | 14249 and 14080 and 11349 | 8285 and 6369 and 7518 | 98211 and 69008 and 131784 | – | A (a relative luminescence value (RLU) of >100,000) | C (a normalized phagocytosis score of 1.0-1.5) | 7902 and 6992 and 7029 | A (a relative luminescence value (RLU) of >100,000) | D (a normalized phagocytosis score of 0.5-1.0) |
| COc1ccc(OC)c(N2CC(C(=O)Nc3ccc(-c4cn(CCOCCOCCOCCOCCOCCOCCOCCOCCNC(=O)CCCC[C@@H]5SC[C@@H]6NC(=O)N[C@@H]65)nn4)cc3)CC2=O)c1 (stereo partly shown) [Compound I-39] | – | – | – | – | – | – | – | 100 to 500 nM | C (a relative luminescence value (RLU) of 1,000-10,000) | B (a normalized phagocytosis score of 1.5-2.0) | – | C (a relative luminescence value (RLU) of 1,000-10,000) | B (a normalized phagocytosis score of 1.5-2.0) |

Further lines, with some results ahead:

| Biotin ELISA Results CD16a-158F (CD16a158F [2]) | Biotin ELISA Results CD16a-158V (CD16a158V [3]) | Biotin ELISA Results CD32a-H167 (CD32a H167) | Biotin ELISA Results CD32a-R167 (CD32a-R167) | Biotin ELISA Results CD32b (CD32b) | Biotin ELISA Results CD3ed (CD3ed) | Biotin ELISA Results CD64 (CD64) | Kd (CD16a158V [7]) | Structure (SMILES) | Biotinylated Ligand ELISA-CD16a158V Binding (RLU) (CD16a158V [1]) | ACDP (primary monocytes)-normalized phagocytosis score (primary monocytes) | Biotin ELISA Results No Protein [4] | Biotinylated Ligand ELISA-CD16a158F Binding (RLU) (CD16a158F [5]) | ACDP (CD16a negative THP1 cells)-normalized phagocytosis score [6] |
| --- | --- | --- | --- | --- | --- | --- | --- | --- | --- | --- | --- | --- | --- |
| 19818 and 20544 and 2349* | 2543 and 5076 and 2414 | 3600 and 3315 and 3632 | 8460 and 31058 and 13897 | 3985 and 5047 and 3438 | 3087 and 4575 and 2480 | 40426 and 53812 and 48052 | – | O=C(CCCC[C@@H]1SC[C@@H]2NC(=O)N[C@@H]21)NCCOCCOCCOCCOCCOCCOCCOCCOCCn1cc(-c2cccc(NC(=O)N3CCC4(CC3)NC(=O)N(Cc3ccccc3)C4=O)c2)nn1 [Compound I-16, N-{3-[1-(26-{5-[(3aS,4S,6aR)-2-oxo-hexahydro-1H-thieno[3,4-d]imidazol-4-yl]pentanamido}-3,6,9,12,15,18,21,24-octaoxahexacosan-1-yl)-1H-1,2,3-triazol-4-yl]phenyl}-3-benzyl-2,4-dioxo-1,3,8-triazaspiro[4.5]decane-8-carboxamide] | D (a relative luminescence value (RLU) of 1-1,000) | B (a normalized phagocytosis score of 1.5-2.0) | 4636 and 2801 and 5055 | D (a relative luminescence value (RLU) of 1-1,000) | – |
| 122 and 5830 and 2636 | 443 and 2316 and 1591 | 1642 and 1978 and 2246 | 11182 and 5954 and 10675 | 2439 and 955 and 1191 | 1412 and 1083 and 1250 | 44623 and 46028 and 52372 | – | O=C(CCCC[C@@H]1SC[C@@H]2NC(=O)N[C@@H]21)NCCOCCOCCOCCOCCOCCOCCOCCOCCn1cc(-c2ccc(NC(=O)N3CCC4(CC3)NC(=O)N(Cc3ccccc3)C4=O)cc2)nn1 [Compound I-17, N-{4-[1-(26-{5-[(3aS,4S,6aR)-2-oxo-hexahydro-1H-thieno[3,4-d]imidazol-4-yl]pentanamido}-3,6,9,12,15,18,21,24-octaoxahexacosan-1-yl)-1H-1,2,3-triazol-4-yl]phenyl}-3-benzyl-2,4-dioxo-1,3,8-triazaspiro[4.5]decane-8-carboxamide] | D (a relative luminescence value (RLU) of 1-1,000) | C (a normalized phagocytosis score of 1.0-1.5) | −236 and −272 and 237 | D (a relative luminescence value (RLU) of 1-1,000) | B (a normalized phagocytosis score of 1.5-2.0) |
